# From patent US5306721A (priority 1990, dated 1994)
# Counter-ions that a name gives are not always drawn. Like-named read-outs stand apart in the source and are kept apart here.
# Assays:
# [1] = tested on: effector T lymphocyte activity (contact hypersensitivity); assay: Percutaneous test for detecting delayed contact hypersensitivity (contact dermatitis) after DNFB immunization; assay type: in vivo, guinea pig; details: Cavia porcellus, Control: 100, oral 2 mg/kg daily
# Source text: 1.1 Percutaneous test for detecting contact hypersensitivity
# The epicutaneous application of dinitrofluorobenzene (DNFB) led to the development of a delayed hypersensitivity in guinea pigs and mice, an immune status, which is linked to the clonal reproduction of antitrinitrophenyl (TNP)-specific T lymphocytes (TDTH -ly). If, after a latency period of at least 5 days, there is a renewed application of DNFB, lymphokines are released through the reaction with the TDTH -ly of this region of the skin and thus lead to a locally limited inflammatory reaction.
# Seven days after the immunization with 1% DNFB, the sides of the experimental animals were depilated and tested by the application of one drop each of the 0.5%, 0.1%, 0.05, 0.025% and 0.01% DNFB solution. […] The test results are obtained from the severity and number of the positive skin reactions, and the stimulation index (SI) is obtained from the comparison of test animals and control animals.
# The test substance is orally administered. A daily dose of 2 mg/kg of body weight, as an aqueous suspension, was administered daily by a stomach tube. Duration of treatment: 1 day+1 (one day after the immunization), up to +6. The control animals received only the lactose content of the composition.
# (§1) The degree of sensitization in percent and the concentration of serum antibodies expressed as antibody titer difference is compared below to the respective control group (screening values).
# (§2) A contact dermatitis value of 120 or more, i.e. corresponding to an at least 20% increase compared to the control, or of less than 80 are taken as proof of a stimulatory or suppressor effect, respectively. Antibody values of >+1 or <-1 illustrate the stimulatory or suppressor effect, respectively, of the substances on the humoral response.
# [2] = tested on: SE-specific rosette-forming cells (RFC); assay: Rosette test (SE-specific rosettes); assay type: in vivo, mouse (inbred CBA strain); details: oral administration
# Procedure: The testing of immunostimulatory effects was also conducted on the mouse (inbred CBA strain) by detection through the plaque test for detecting SE (sheep erythrocyte) -specific immunoglobulin M (IgM) and immunoglobulin G (IgG) PFC (plaque forming cells), and by the rosette test.
# 2.2 Rosette Test (SE-specific rosettes)
# According to Burnet's Theory, lymphocytes carry immunoglobulin receptors on their surface. These receptors are directed against a particular antigen and are detectable by a reaction with the specific antigen. The determination of the number of rosette-forming cells (RFC) can serve as a measure of the strength of an incipient immune reaction and consequently also reproduce the effects of a suppression or stimulation of cell-proliferative processes.
# Three days after the intravenous immunization with 2×10^5 SE in 0.2 ml physiological salt solution, the experimental animals were killed by hyperdistention, the spleen was removed and, after addition of Parker medium at pH 7.4, rubbed through Muller gauze. The work to recover the cell suspension was carried out in an ice-cooled water bath from about 0° C. to about 4° C. The determination of the cell density was carried out in a Neubauer counting chamber. Next, the cell count was adjusted to 1×10^7 nuclei-containing cell (NCC) per ml of medium, a count that was kept constant for all experimental formulations. Of this spleen cell suspension (1×10^7 NCC/ml), 0.9 ml were then mixed with 0.1 ml of a 5% washed SE suspension and incubated for 24 hours at 4° C. An NCC, which was surrounded by at least 4 erythrocytes and was identifiable, was rated as a rosette.
# Vaccinia Lister [3] = assay: microbe, parasite or virus in culture; assay type: cell-based; details: Orthopoxvirus vaccinia
# Herpes simplex type 1 = assay: Grading replication test on RH cell line, herpes simplex type 1; assay type: cell-based, herpes simplex virus; details: Human alphaherpesvirus 1, RH cells
# Influenza A/WSN [4] = assay: Grading replication test on RH cell line, influenza; assay type: cell-based, influenza virus; details: RH cells
# Vaccinia Lister [5] = assay: microbe, parasite or virus in culture; assay type: cell-based; details: Orthopoxvirus vaccinia, Fibroblast, in Gallus gallus
# Influenza A/WSN [6] = assay: Grading replication test on chicken embryo fibroblasts, influenza; assay type: cell-based; details: Influenza A virus, Fibroblast
# [7] = tested on: DNP-specific serum antibodies; assay: Takatsy test for DNP-specific serum antibodies (humoral immune response); assay type: in vivo, guinea pig; details: difference to control group; blood taken 14 days after DNFB
# Procedure: After immunization with DNFB, dinitrophenyl (DNP)-specific humoral antibodies, which preferentially belong to the IgG1 substance class, are developed in guinea pigs. Blood was taken from the experimental animals by puncture of the heart fourteen days after the primary epicutaneous application of DNFB. The antibody (AB) concentration was determined according to the method described by G. Takatsy: A New Method for the Preparation of Serial Dilutions in a Quick and Accurate Way, (Kiserletes Orvostudomany, Hungary, Vol. 2, 1950, pp. 263-396). TNP-laden sheep erythrocytes were used as indicator cells coupled according to Rittenberg and Pratt (M. B. Rittenberg, and K. L. Pratt, Antitrinitrophenyl Plaque Assay. Primary Response of BALB/c Mice to Soluble and Particulate Immunogen, Proc. Soc. Exp. Biol. Med., Vol. 132, 1969, pp. 575-579).
# as §1, §2
# [8] = levamisole after oral administration to man; inosine benzoate about 50 mg/kg/day; cited from earlier work
# immune system = details: cited from earlier work
# [9] = 24 h, day +1 to +6, read-out: Contact dermatitis, 24-hour reaction
# [10] = read-out: Inhibition of virus yield
# [11] = read-out: Lowering the virus yield
# [12] = 62.5 μmoles/l, read-out: Inhibition of virus yield
# [13] = 62.5 μmoles/l, read-out: Lowering the virus yield
# [14] = 125 μmoles/l, read-out: Inhibition of virus yield
# [15] = 125 μmoles/l, read-out: Lowering the virus yield
# [16] = 250 μmoles/l, read-out: Inhibition of virus yield
# [17] = 250 μmoles/l, read-out: Lowering the virus yield
# [18] = 48 h, day +1 to +6, read-out: Contact dermatitis, 48-hour reaction
structure (smiles),measurement,setting,value
"COc1cc2[nH]c(=O)n(CCCS)c(=O)c2cc1OC [Example 2, 3-(3-mercapto-prop-1-yl)-6,7-dimethoxy-quinazoline-2,4(1H,3H)-dione]",response vs control in vivo at 2 mg/kg,[1]; [9],180%
same,production of SE-specific rosette-forming cells,[2],significant production of SE-specific rosette-forming cells
same,inhibition at 31.25 µM,Vaccinia Lister [3]; [10],99.8%
same,inhibition at 62.5 µM,Vaccinia Lister [3]; [10],> 100%
same,inhibition at 125 µM,Vaccinia Lister [3]; [10],> 100%
same,inhibition at 250 µM,Vaccinia Lister [3]; [10],> 100%
same,log reduction at 31.25 µM,Vaccinia Lister [3]; [11],2.84
same,log reduction at 62.5 µM,Vaccinia Lister [3]; [11],5
same,log reduction at 125 µM,Vaccinia Lister [3]; [11],5
same,log reduction at 250 µM,Vaccinia Lister [3]; [11],5
same,inhibition at 31.25 µM,"Herpes simplex type 1; 31.25 μmoles/l, read-out: Inhibition of virus yield",100%
same,log reduction at 31.25 µM,"Herpes simplex type 1; 31.25 μmoles/l, read-out: Lowering the virus yield",3.67
same,inhibition at 62.5 µM,Herpes simplex type 1; [12],> 100%
same,log reduction at 62.5 µM,Herpes simplex type 1; [13],5
same,inhibition at 125 µM,Herpes simplex type 1; [14],> 100%
same,log reduction at 125 µM,Herpes simplex type 1; [15],6.5
same,inhibition at 250 µM,Herpes simplex type 1; [16],> 100%
same,log reduction at 250 µM,Herpes simplex type 1; [17],6.5
same,Inhibition of virus yield,"Influenza A/WSN [4]; 62.5 μmoles/l, n.s. = not significant",n.s.
same,log reduction at 31.25 µM,"Influenza A/WSN [4]; Influenza A virus, WSN, 31.25 μmoles/l, read-out: Lowering the virus yield",0
same,log reduction at 62.5 µM,"Influenza A/WSN [4]; Influenza A virus, WSN, 62.5 μmoles/l, read-out: Lowering the virus yield",0.5
same,inhibition at 125 µM,"Influenza A/WSN [4]; Influenza A virus, WSN, 125 μmoles/l, read-out: Inhibition of virus yield",99%
same,log reduction at 125 µM,"Influenza A/WSN [4]; Influenza A virus, WSN, 125 μmoles/l, read-out: Lowering the virus yield",2
same,inhibition at 250 µM,"Influenza A/WSN [4]; Influenza A virus, WSN, 250 μmoles/l, read-out: Inhibition of virus yield",100%
same,log reduction at 250 µM,"Influenza A/WSN [4]; Influenza A virus, WSN, 250 μmoles/l, read-out: Lowering the virus yield",6.17
same,inhibition at 31.25 µM,Vaccinia Lister [5]; [10],99.9%
same,inhibition at 62.5 µM,Vaccinia Lister [5]; [10],99.9%
same,inhibition at 125 µM,Vaccinia Lister [5]; [10],> 100%
same,inhibition at 250 µM,Vaccinia Lister [5]; [10],> 100%
same,log reduction at 31.25 µM,Vaccinia Lister [5]; [11],3
same,log reduction at 62.5 µM,Vaccinia Lister [5]; [11],3.5
same,log reduction at 125 µM,Vaccinia Lister [5]; [11],5
same,log reduction at 250 µM,Vaccinia Lister [5]; [11],5
same,inhibition at 62.5 µM,Influenza A/WSN [6]; [12],99%
same,log reduction at 62.5 µM,Influenza A/WSN [6]; [13],2
same,inhibition at 125 µM,Influenza A/WSN [6]; [14],> 100%
same,log reduction at 125 µM,Influenza A/WSN [6]; [15],5
same,inhibition at 250 µM,Influenza A/WSN [6]; [16],> 100%
same,log reduction at 250 µM,Influenza A/WSN [6]; [17],5
"COc1cc2[nH]c(=O)n(CCS)c(=O)c2cc1OC [Example 3, 3-(2-mercapto-ethyl)-6,7-dimethoxy-quinazoline-2,4(1H,3H)-dione]",response vs control in vivo at 2 mg/kg,[1]; [9],100%
same,DNP-specific antibodies (antibody titer difference),[7],+1.0
"O=c1[nH]c2ccc(Br)cc2c(=O)n1CCS [Example 5, 6-bromo-3-(2-mercaptoethyl)-quinazoline-2,4(1H,3H)-dione]",response vs control in vivo at 2 mg/kg,[1]; [9],150%
same,response vs control in vivo at 2 mg/kg,[1]; [18],120%
same,DNP-specific antibodies (antibody titer difference),[7],-0.6
"O=c1[nH]c2ccccc2c(=O)n1CCCS [Example 6, 3-(3-Mercapto-propyl)-quinazoline-2,4(1H,3H)-dione]",response vs control in vivo at 2 mg/kg,[1]; [9],70%
same,response vs control in vivo at 2 mg/kg,[1]; [18],40%
same,DNP-specific antibodies (antibody titer difference),[7],-1.5
same,production of SE-specific rosette-forming cells,[2],significant production of SE-specific rosette-forming cells
"CC(S)Cn1c(=O)[nH]c2ccccc2c1=O (centres unmarked) [Example 7, 3-(2-mercapto-propyl)-quinazoline-2,4(1H,3H)-dione]",response vs control in vivo at 2 mg/kg,[1]; [9],230%
same,DNP-specific antibodies (antibody titer difference),[7],+1.8
"O=c1[nH]c2ccc(Cl)cc2c(=O)n1CCCS [Example 8, 6-chloro-3-(3-mercapto-propyl)-quinazoline-2,4(1H,3H)-dione]",response vs control in vivo at 2 mg/kg,[1]; [9],100%
same,response vs control in vivo at 2 mg/kg,[1]; [18],115%
"Cc1ccc2[nH]c(=O)n(CCCS)c(=O)c2c1 [Example 12, 6-methyl-3-(3-mercapto-propyl)-quinazoline-2,4(1H,3H)-dione]",response vs control in vivo at 2 mg/kg,[1]; [9],120%
same,response vs control in vivo at 2 mg/kg,[1]; [18],130%
same,DNP-specific antibodies (antibody titer difference),[7],+0.3
"O=c1[nH]c2ccc(Cl)cc2c(=O)n1CCS [Example 13, 6-chloro-3-(2-mercapto-ethyl)-quinazoline-2,4(1H,3H)-dione]",response vs control in vivo at 2 mg/kg,[1]; [9],120%
same,response vs control in vivo at 2 mg/kg,[1]; [18],130%
"Cc1ccc2[nH]c(=O)n(CCS)c(=O)c2c1 [Example 14a, 6-Methyl-3-(2-mercapto-ethyl)-quinazoline-2,4(1H,3H)-dione]",response vs control in vivo at 2 mg/kg,[1]; [9],60%
same,response vs control in vivo at 2 mg/kg,[1]; [18],60%
same,DNP-specific antibodies (antibody titer difference),[7],-1.9
"O=c1[nH]c2ccc(Br)cc2c(=O)n1CCCS [Example 14b, 6-Bromo-3-(3-mercapto-propyl)-quinazoline-2,4(1H,3H)-dione]",response vs control in vivo at 2 mg/kg,[1]; [9],105%
same,response vs control in vivo at 2 mg/kg,[1]; [18],100%
same,DNP-specific antibodies (antibody titer difference),[7],+2.2
"O=c1[nH]c2ccc(F)cc2c(=O)n1CCS [Example 14c, 6-Fluoro-3-(2-mercapto-ethyl)-quinazoline-2,4(1H,3H)-dione]",response vs control in vivo at 2 mg/kg,[1]; [9],90%
same,response vs control in vivo at 2 mg/kg,[1]; [18],105%
"CC(S)Cn1c(=O)[nH]c2ccc(F)cc2c1=O (centres unmarked) [Example 14d, 6-Fluoro-3-(2-mercapto-propyl)-quinazoline-2,4(1H,3H)-dione]",response vs control in vivo at 2 mg/kg,[1]; [9],100%
same,response vs control in vivo at 2 mg/kg,[1]; [18],150%
"COc1cc2[nH]c(=O)n(CC(C)S)c(=O)c2cc1OC (centres unmarked) [Example 14e, 6,7-Dimethoxy-3-(2-mercapto-propyl)-quinazoline-2,4(1H,3H)-dione]",response vs control in vivo at 2 mg/kg,[1]; [9],100%
same,production of SE-specific rosette-forming cells,[2],significant production of SE-specific rosette-forming cells
CC(C)(N1CC1C#N)N1CC1C(N)=O (centres unmarked) [azimexone],side effects,[8],"headaches, vomiting and a decrease in haemoglobin (Hb) and erythrocytes"
O=C(OC[C@H]1O[C@@H](n2cnc3c(O)ncnc32)[C@H](O)[C@@H]1O)c1ccccc1 [inosine benzoate],side effects,[8],"vomiting, hyperuricemia and an increase in hematocrits"
same,immunological effect,immune system,primarily an immunostimulating effect
c1ccc([C@H]2CN3CCSC3=N2)cc1 [levamisole hydrochloride],side effects,[8],"vomiting, nausea, leucopenia, and agranulocytosis"
same,immunological effect,immune system,predominantly immunorestorative effect
